Converted amounts (≈) assume the structure as drawn.
test system: H. influenza Hi4 efflux pump KO; experiment: Antibacterial activity assay (MIC), H. influenza Hi4; assay type: cell-based

Row | SMILES | MIC [µg/mL]
1 | COC[C@@H]1[C@@H](O)[C@@H]2[C@H]3C=C[C@@H]4[C@@H](COC)C(=O)O[C@H]([C@H](O)COC)[C@H](C)/C=C(\C)[C@@]24O[C@H]3[C@@H]1OC(=O)c1cc(Br)c(F)[nH]1 [Compound 37, 8-O-4-Bromo-5-Fluoro-1H-pyrrole-2′-carbonylbranimycin] | 16 (≈ 23.8 µM)
2 | COC[C@@H]1[C@@H](O)[C@@H]2[C@H]3C=C[C@@H]4[C@@H](COC)C(=O)O[C@H]([C@H](O)COC)[C@H](C)/C=C(\C)[C@@]24O[C@H]3[C@@H]1OC(=O)c1cc(F)c(F)[nH]1 [Compound 38, 8-O-4,5-Difluoro-1H-pyrrole-2′-carbonylbranimycin] | 16 (≈ 26.2 µM)
3 | COC[C@@H]1[C@@H](O)[C@@H]2[C@H]3C=C[C@@H]4[C@@H](COC)C(=O)O[C@H]([C@H](O)COC)[C@H](C)/C=C(\C)[C@@]24O[C@H]3[C@@H]1OC(=O)c1cc(C)n[nH]1 [Compound 39, 8-O-5-Methyl-1H-Pyrazole-3′-carbonylbranimycin] | > 64
4 | COCC(=NO)[C@H]1OC(=O)[C@H](COC)[C@H]2C=C[C@H]3[C@H]4O[C@]2(/C(C)=C/[C@H]1C)[C@@H]3[C@H](O)[C@@H](COC)[C@H]4OC(=O)c1cc(F)c[nH]1 [Compound 40, 18-Deoxy-18-oximino-8-O-4-Fluoro-1H-pyrrole-2′-carbonylbranimycin] | 2 (≈ 3.3 µM)
5 | COCC(=NO)[C@H]1OC(=O)[C@H](COC)[C@H]2C=C[C@H]3[C@H]4O[C@]2(/C(C)=C/[C@H]1C)[C@@H]3[C@H](O)[C@@H](COC)[C@H]4OC(=O)c1cc(Cl)c[nH]1 [Compound 41, 18-Deoxy-18-oximino-8-O-4-Chloro-1H-pyrrole-2′-carbonylbranimycin] | 8 (≈ 12.8 µM)
6 | COCC(=NOC(C)=O)[C@H]1OC(=O)[C@H](COC)[C@H]2C=C[C@H]3[C@H]4O[C@]2(/C(C)=C/[C@H]1C)[C@@H]3[C@H](O)[C@@H](COC)[C@H]4OC(=O)c1cc(Cl)c[nH]1 [Compound 42, 18-Acetylimino-18-deoxy-8-O-4-Chloro-1H-pyrrole-2′-carbonylbranimycin] | 4 (≈ 6.01 µM)
7 | CO[C@H]1C[C@H]2C=C[C@H]3[C@H]4O[C@]2(/C(C)=C/[C@@H](C)[C@@H]([C@@H](C)O)OC1=O)[C@@H]3[C@H](O)[C@@H](C)[C@H]4OC(=O)c1ccc[nH]1 [Nargenicin A1, reference compound] | 0.5 (≈ 0.97 µM)
8 | COC[C@@H]1[C@@H](O)[C@@H]2[C@H]3C=C[C@@H]4C[C@H](O)C(=O)O[C@H]([C@H](O)COC)[C@H](C)/C=C(\C)[C@@]24O[C@H]3[C@@H]1OC(=O)c1ccc[nH]1 [Nargenicin B1, reference compound] | 8 (≈ 14.2 µM)
9 | CO[C@H]1C[C@H]2C=C[C@H]3[C@H]4O[C@]2(/C(C)=C/[C@@H](C)[C@@H]([C@@H](C)O)OC1=O)[C@@H]3[C@H](O)[C@@H](C)[C@H]4O [Nodusmicin, reference compound] | 2 (≈ 4.73 µM)

From patent US20160297830A1, “NOVEL COMPOUNDS USEFUL FOR THE TREATMENT OF BACTERIAL INFECTIOUS DISEASES” (GALAPAGOS NV, priority 2013, published 2016)
